Results taken from patent US20180263985A1, “MODULATORS OF TOLL-LIKE RECEPTORS FOR THE TREATMENT OF HIV” (Gilead Sciences, Inc., priority 2015, published 2018).
Values joined by “and” are separate entries in the source; they are usually repeats but may differ in a detail not shown here. Equal entries are not always repeated.

Experiments:
Type in all cases: cell-based, human
NK Cells = test: Immune cell activation in PBMC cultures, flow cytometry: NK cells; details: for NK Cells CD25 Fold / NK Cells CD69 Fold: 2 days, N = 6
Method: (§1) TLR8 is expressed on multiple immune cell subsets. To determine how treatment with a TLR8 modulating compound affects activation of distinct cell populations, PBMCs were purified from HIV-1 infected subjects on cART, as described in Example 121 (anonymized participant IDs 184, 185, 188, 189, 190, and 191). […] After incubation, PBMCs were harvested and stained with antibodies conjugated to specific fluorophores (BD Biosciences) to delineate immune cell subsets: CD4 T cells (CD3+CD4+CD8−), CD8 T cells (CD3+CD8+CD4−), NK cells (CD3−CD56+CD16+), monocytes (CD3−CD14+), B cells (CD3−CD19+), and peripheral dendritic cells (DCs), defined as positive for HLA-DR and negative for a panel of markers: CD3, CD14, CD16, CD19, CD20, CD56 (Lin-1 lineage panel, BD Biosciences).
(§2) Additional markers of activation, maturation, and effector function were included for cell subsets, as follows: CD4 and CD8 T cells (CD25, CD38, CD69, IFN-γ, granzyme B, perforin, TNF-α), NK cells (CD25, CD69, IFN-γ), monocytes (CD11c, CD16, CD80, CD86, CD163, TNF-α), B cells (CD40, CD69, CD80, CD86), and DC (CD11c, CD69, CD80, CD86, CD123, and CD163). Cells were stained for surface markers (CD3, CD4, CD8, CD11c, CD14, CD16, CD25, CD69, CD80, CD86, CD163), washed, treated with fixation and permeabilization buffer (eBioscience), and stained for intracellular markers (IFN-γ, granzyme B, perforin, TNF-α). Cells were evaluated by flow cytometry on a LSR Fortessa (BD Biosciences), and data was analyzed with FlowJo software (TreeStar).
(§3) Data are expressed as geometric mean percentage (%) and as geometric mean fold-activation (Fold) for each marker and for each PBMC subset obtained from 4 or 6 subjects, as indicated. Fold activation is calculated as a ratio of the % positive for each marker for each PBMC subset at the indicated concentration of the compound of Example 15 relative to % positive for DMSO treated samples. Fold activations that are 1.5 are in bold.

[1] = system: HIV-specific polyfunctional CD8 T cells; test: Induced HIV-specific polyfunctional CD8+ T cells in PBMC cultures from HIV-1 infected subjects on cART
[2] = system: PBMC cultures from HIV-1 infected subjects on cART; test: Induced HIV-1 expression in PBMC cultures, HIV-1 RNA in supernatant after 4 days (COBAS TaqMan HIV-1 Test); details: for Geometric Mean with ≥2-Fold-Activation / Range with ≥2-Fold-Activation: N = 12; for N with ≥2-Fold-Activation: subjects; for Fold HIV-1 Activation: vs DMSO
Method: In some experiments, IL-15, the TLR8 modulating compound of Example 15 or the combination of IL-15 and Example 15 were used at the indicated concentrations (Table 4). The cultures were maintained in the presence of antivirals (elvitegravir and efavirenz at 100 nM each) to prevent viral spread and amplification in order to measure the quantity of virus produced (latency reversal) by the TLR8 modulating compounds. At the end of the incubation period, cell-free culture supernatants were harvested and HIV-1 RNA levels were quantified by the COBAS® AmpliPrep/COBAS®TaqMan HIV-1 Test, v2.0 (Roche).
In each table, fold-activation is calculated as a ratio of HIV-1 RNA copies per ml of cell culture supernatants from TLR8 agonist treated samples and DMSO treated controls. Geometric mean fold-activation from three independent incubation samples for each condition of each subject's PBMCs. Values in bold indicate ≥2-fold HIV activation.
To assess if the latency reversal induced by TLR8 agonism could further potentiate latency reversal by a separate mechanisms, we treated cells as described above with IL-15, Example 15, or a combination of IL-15 and Example 15 (Table 4).

DCs = test: Immune cell activation in PBMC cultures, flow cytometry: DCs; details: for DCs CD80 Fold / DCs CD69 Fold: 2 days, N = 4
Method: as §1, §2, §3

B Cells = test: Immune cell activation in PBMC cultures, flow cytometry: B cells; details: for B Cells CD69 Fold / B Cells CD80 Fold / B Cells CD69 % / B Cells CD80 %: 2 days, N = 4
Method: as §1, §2, §3

Monocytes = test: Immune cell activation in PBMC cultures, flow cytometry: monocytes
Method: as §1, §2, §3

## CCCC[C@H](CO)Nc1nc(N)nc2cccnc12 [Example 15]
NK Cells; 10 nM vs DMSO
  NK Cells CD25 Fold: 0.4 fold
  NK Cells CD69 Fold: 0.4 fold
NK Cells; 100 nM vs DMSO
  NK Cells CD25 Fold: 1.6 fold
  NK Cells CD69 Fold: 0.6 fold
NK Cells; 1000 nM vs DMSO
  NK Cells CD69 Fold: 12.4 fold
NK Cells; 3000 nM vs DMSO
  NK Cells CD25 Fold: 9.6 fold
  NK Cells CD69 Fold: 11.8 fold
NK Cells; increased expression of CD25 and CD69
  Concentration of maximal activation of NK cells: 1000 nM
[1]; 100 nM
  Patients in whom increases in HIV-specific polyfunctional CD8 T cells were seen: 3 of 5
[1]; 100 nM, HIV peptide pool, 5 subjects
  Median HIV-specific polyfunctional CD8 T cells (% proliferating CD8+ cells double positive for IFN-γ and TNF-α): 0.99%
[1]; 1000 nM
  Patients in whom increases in HIV-specific polyfunctional CD8 T cells were seen: 4 of 5
[1]; 1000 nM with HIV specific peptide pool vs vehicle, p<0.05
  Fold increase of median HIV-specific polyfunctional CD8 T cells: 2.7 fold
[2]; 10 nM
  Subjects with ≥2-Fold-Activation (%): (42) %
  Geometric Mean with ≥2-Fold-Activation: 4.6 fold
  Range with ≥2-Fold-Activation: 2.2-20.1 fold
  N with ≥2-Fold-Activation: 5 of 12
[2]; 10 nM, one value per subject (IDs 172-183)
  Fold HIV-1 Activation: 2.6 fold and 2.2 fold and 4.7 fold and 1.2 fold and 1.9 fold and 1.3 fold and 0.3 fold and 0.5 fold and 1.0 fold and 4.1 fold and 0.8 fold
[2]; 100 nM
  Subjects with ≥2-Fold-Activation (%): (33) %
  Geometric Mean with ≥2-Fold-Activation: 4.8 fold
  Range with ≥2-Fold-Activation: 2.2-10.1 fold
  N with ≥2-Fold-Activation: 4 of 12
[2]; 100 nM, one value per subject (IDs 172-183)
  Fold HIV-1 Activation: 3.8 fold and 6.6 fold and 2.2 fold and 1.5 fold and 1.0 fold and 0.5 fold and 0.2 fold and 0.1 fold and 0.7 fold and 1.8 fold and 1.3 fold
[2]; 1,000 nM
  Subjects with ≥2-Fold-Activation (%): (58) %
  Geometric Mean with ≥2-Fold-Activation: 3.4 fold
  Range with ≥2-Fold-Activation: 2.4-5.7 fold
  N with ≥2-Fold-Activation: 7 of 12
[2]; 1,000 nM, one value per subject (IDs 172-183)
  Fold HIV-1 Activation: 2.7 fold and 2.4 fold and 3.3 fold and 1.2 fold and 4.7 fold and 0.3 fold (2×) and 3.4 fold and 3.0 fold and 1.3 fold and 1.6 fold and 5.7 fold
[2]; 10, 100, or 1000 nM
  Geometric Mean with ≥2-Fold-Activation: 4.4 fold
  Range with ≥2-Fold-Activation: 2.2-20.1 fold
  N with ≥2-Fold-Activation: 9 out of 12 and 9 of 12
[2]; Example 15 1000 nM
  Subjects with ≥2-Fold-Activation (%): 50%
  N with ≥2-Fold-Activation: 3 of 6
[2]; Example 15 1000 nM, N = 6
  Fold HIV-1 Activation, Geometric Mean: 2.1 fold
[2]; Example 15 1000 nM, one value per subject (IDs 205-210)
  Fold HIV-1 Activation: 0.6 fold and 4.7 fold and 0.8 fold and 9.7 fold and 2.0 fold and 1.9 fold
DCs; 10 nM vs DMSO
  DCs CD80 Fold: 1.8 fold
DCs; 100 nM vs DMSO
  DCs CD69 Fold: 0.4 fold
  DCs CD80 Fold: 2.4 fold
DCs; 1000 nM vs DMSO
  DCs CD69 Fold: 3.3 fold
  DCs CD80 Fold: 2.9 fold
DCs; 3000 nM vs DMSO
  DCs CD69 Fold: 8.9 fold
  DCs CD80 Fold: 2.0 fold
DCs; increased expression of CD69
  Concentration of maximal activation of DCs: 3000 nM
DCs; increased expression of CD80
  Concentration of maximal activation of DCs: 1000 nM
B Cells; 10 nM vs DMSO
  B Cells CD69 Fold: 1.2 fold
  B Cells CD80 Fold: 1.6 fold
B Cells; 10 nM
  B Cells CD69 %: 10.0%
  B Cells CD80 %: 2.6%
B Cells; 100 nM vs DMSO
  B Cells CD69 Fold: 0.5 fold
  B Cells CD80 Fold: 1.1 fold
B Cells; 100 nM
  B Cells CD69 %: 3.9%
  B Cells CD80 %: 1.7%
B Cells; 1000 nM vs DMSO
  B Cells CD69 Fold: 1.1 fold
  B Cells CD80 Fold: 1.4 fold
B Cells; 1000 nM
  B Cells CD69 %: 9.1%
  B Cells CD80 %: 2.2%
B Cells; 3000 nM vs DMSO
  B Cells CD69 Fold: 1.7 fold
  B Cells CD80 Fold: 1.9 fold
B Cells; 3000 nM
  B Cells CD80 %: 3.0%
B Cells; increased expression of CD69 and CD80
  Concentration of maximal activation of B cells: 3000 nM
Monocytes; 10 nM vs DMSO, 2 days, N = 6
  Monocytes CD11c Fold: 0.6 fold
  Monocytes CD69 Fold: 0.3 fold
  Monocytes CD80 Fold: 1.1 fold
Monocytes; 10 nM, 2 days, N = 6
  Monocytes CD11c %: 0.4%
  Monocytes CD69 %: 0.8%
  Monocytes CD80 %: 33.0%
Monocytes; 100 nM vs DMSO, 2 days, N = 6
  Monocytes CD11c Fold: 5.2 fold
  Monocytes CD69 Fold: 0.6 fold
  Monocytes CD80 Fold: 1.6 fold
Monocytes; 100 nM, 2 days, N = 6
  Monocytes CD11c %: 3.6%
  Monocytes CD69 %: 1.8%
Monocytes; 1000 nM vs DMSO, 2 days, N = 6
  Monocytes CD11c Fold: 1.6 fold
  Monocytes CD69 Fold: 2.0 fold
  Monocytes CD80 Fold: 3.0 fold
Monocytes; 1000 nM, 2 days, N = 6
  Monocytes CD11c %: 1.2%
  Monocytes CD69 %: 6.2%
Monocytes; 3000 nM vs DMSO, 2 days, N = 6
  Monocytes CD11c Fold: 2.1 fold
  Monocytes CD69 Fold: 2.6 fold
  Monocytes CD80 Fold: 2.7 fold
Monocytes; 3000 nM, 2 days, N = 6
  Monocytes CD11c %: 1.5%
  Monocytes CD69 %: 7.9%
Monocytes; increased expression of CD11c
  Concentration of maximal activation of monocytes: 100 nM
Monocytes; increased expression of CD69
  Concentration of maximal activation of monocytes: 3000 nM
Monocytes; increased expression of CD80
  Concentration of maximal activation of monocytes: 1000 nM
